Consider 2 compounds from ChEMBL document CHEMBL4311969, “Polygala tenuifolia-Acori tatarinowii herbal pair as an inspiration for substituted cinnamic α-asaronol esters: Design, synthesis, anticonvulsant activity, and inhibition of lactate dehydrogenase study” (Eur J Med Chem, 2019).

“And” between values parts separate entries of the source, which are not always exact repeats. Equal values may be shown once. The source made the active and inactive calls. The rule behind the calls is not given here. Where only a bound is given, the exact number is not on record here.

Series [1] deals with GABA-A receptor; alpha-1/beta-2/gamma-2 (Homo sapiens) (UniProt P14867+P47870+P18507). The series can be described thus: Agonist activity at GABA alpha1beta2gamma2 receptor in human HEK293T at 3.3 to 300 uM at -50 mV holding potential by whole cell voltage clamp assay relative to control. In kind it is protein-complex assay.
The nature of series [2]: Drug uptake in Sprague-Dawley rat spleen at 50 mg/kg, po. The class given is ADME, organism-based. The following applies: in vivo.
Series [3] can be described thus: Neurotoxicity against Kunming mouse assessed as time remained in rod at 100 mg/kg, ip administered 0.5 to 2 hrs by rotarod test. To be noted: in vivo. In kind it is toxicity, organism-based.
The nature of series [4]: Cmax in Sprague-Dawley rat at 20 mg/kg, po measured upto 480 mins by LC-MS/MS analysis. The class given is ADME, organism-based. Also on record: dose 20 mg/kg, route oral. To be noted: in vivo.
The subject of series [5] is Mus musculus. The series can be described thus: Anticonvulsant activity in Kunming mouse assessed as reduction in Sc3-MP-induced seizure at 300 mg/kg, ip administered 0.25 and 1 hrs before Sc3-MP stimulation relative to control. The class given is functional, organism-based.
The species entered for series [6] is Homo sapiens. The series can be described thus: Inhibition of human LDH5 at 0.5 mM using sodium pyruvate as substrate by UV-VIS spectrophotometry method relative to control.
Series [7] in a line: Tmax in Sprague-Dawley rat heart at 50 mg/kg, po. The class given is ADME, organism-based.
Series [8] in a line: Drug uptake in Sprague-Dawley rat lungs at 50 mg/kg, po. In kind it is ADME, organism-based, Lung. To be noted: in vivo.
In series [9] the test system is Mus musculus. The series can be described thus: Anticonvulsant activity in Kunming mouse assessed as reduction in ScPTZ-induced tonic seizure rate at 100 mg/kg, ip administered 0.5 hrs before ScPTZ stimulation relative to control. In kind it is functional. Also on record: scale not given: the % may be the effect or the level left.
Series [10] in a line: AUC in Sprague-Dawley rat at 100 mg/kg, po measured upto 480 mins by LC-MS/MS analysis. The class given is ADME, organism-based. Also on record: dose 100 mg/kg, time < 8 hr, route oral. To be noted: in vivo.
Series [11] in a line: Neurotoxicity against ip dosed Kunming mouse assessed as time remained in rod measured at 0.5 hrs by rotarod test. In kind it is toxicity, organism-based. To be noted: in vivo. Background: In the rotarod test animals must keep their balance on a rotating rod.
The nature of series [12]: Clearance in Sprague-Dawley rat at 20 mg/kg, po measured upto 480 mins by LC-MS/MS analysis. The class given is ADME, organism-based. The following applies: in vivo.
For series [13], the system named is Mus musculus. The series can be described thus: Anticonvulsant activity in Kunming mouse assessed as reduction in Sc3-MP-induced tonic seizure rate at 300 mg/kg, ip administered 0.5 hrs before Sc3-MP stimulation relative to control. In kind it is functional. Also on record: scale not given: the % may be the effect or the level left.
A short description of series [14]: Oral bioavailability in Sprague-Dawley rat at 100 mg/kg measured upto 480 mins by LC-MS/MS analysis. The class given is ADME, organism-based. The following applies: in vivo.
Series [15] can be described thus: Drug uptake in Sprague-Dawley rat kidney at 50 mg/kg, po. In kind it is ADME, organism-based. To be noted: in vivo.
Series [16] is described as follows: Volume of distribution at steady state in Sprague-Dawley rat at 100 mg/kg, po measured upto 480 mins by LC-MS/MS analysis. The class given is ADME, organism-based. The following applies: in vivo, 8 h.
Series [17] can be described thus: Drug uptake in Sprague-Dawley rat brain at 50 mg/kg, po. In kind it is ADME, organism-based. To be noted: in vivo.
A short description of series [18]: Tmax in Sprague-Dawley rat brain at 50 mg/kg, po. In kind it is ADME, organism-based.
Series [19] has as its system Mus musculus. The series can be described thus: Anticonvulsant activity in Kunming mouse assessed as MES-induced hind limb extension at 100 mg/kg, ip administered 0. 5 to 4 hrs before MES stimulation relative to control. The class given is functional.
Series [20] is filed under the species Homo sapiens. The series can be described thus: Inhibition of human LDH5 at 0.5 mM using sodium pyruvate as substrate measured for 60 sec for every 5 mins by LC/MS-MS analysis.
Series [21] can be described thus: Half life in Sprague-Dawley rat at 50 mg/kg, po measured upto 480 mins by LC-MS/MS analysis. To be noted: in vivo. The class given is ADME, organism-based.
Series [22] in a line: Drug metabolism in Sprague-Dawley rat assessed as retention time by HPLC/MS analysis. The class given is ADME.
Series [23] is described as follows: Clearance in Sprague-Dawley rat at 100 mg/kg, po measured upto 480 mins by LC-MS/MS analysis. The class given is ADME, organism-based. To be noted: in vivo.
Series [24] relates to Mus musculus. The series is described as follows: Anticonvulsant activity in Kunming mouse assessed as reduction in ScPTZ-induced seizure at 100 mg/kg, ip administered 0.25 to 2 hrs before ScPTZ stimulation relative to control. The class given is functional. Also on record: scale not given: the % may be the effect or the level left.
For series [25], the system named is Mus musculus. The series can be described thus: Potency index, ratio of ED50 of valproic acid to ED50 of compound anticonvulsant activity in ip dosed Kunming mouse assessed as MES-induced hind limb extension administered 0.5 hrs before MES stimulation. The class given is functional.
Series [26] is described as follows: Noncompetitive inhibition of human LDH1 at 0.5 mM using sodium pyruvate as substrate by UV-VIS spectrophotometry method based Lineweaver-Burk plot analysis.
Series [27] has as its system Mus musculus. The series is described as follows: Anticonvulsant activity in Kunming mouse assessed as reduction in ScPTZ-induced seizure at 100 mg/kg, ip administered 0.5 hrs before ScPTZ stimulation relative to control. The class given is functional. On the set-up: scale not given: the % may be the effect or the level left.
Series [28] has as its system Mus musculus. The series is described as follows: Anticonvulsant activity in Kunming mouse assessed as MES-induced hind limb extension at 100 mg/kg, ip administered 3 hrs before MES stimulation. In kind it is functional, organism-based.
In series [29] the test system is Mus musculus. The series can be described thus: Potency index, ratio of ED50 of carbamazepine to ED50 of compound anticonvulsant activity in ip dosed Kunming mouse assessed as MES-induced hind limb extension administered 0.5 hrs before MES stimulation. In kind it is functional.
Series [30] has as its system Mus musculus. The series can be described thus: Anticonvulsant activity in Kunming mouse assessed as MES-induced hind limb extension at 100 mg/kg, ip administered 0. 5 hrs before MES stimulation relative to control. In kind it is functional.
In series [31] the test system is Mus musculus. The series is described as follows: Potency index, ratio of ED50 of stiripentol to ED50 of compound anticonvulsant activity in ip dosed Kunming mouse assessed as MES-induced hind limb extension administered 0.5 hrs before MES stimulation. In kind it is functional.

A word on the Cmax: it is the highest concentration seen after dosing. The term inhibition denotes the drop in the measured response relative to a control, in per cent. What is called Tmax is the time from dosing to the highest level. As a reminder, the AUC is concentration integrated over time. What is called TD50 is the dose at which the toxic effect under study appears in half of the subjects. In general, CL/F refers to clearance divided by bioavailability, as obtained after extravascular dosing. In general, bioavailability refers to the share of a dose that reaches the circulation, judged against a reference dose that is usually intravenous. The half-life is how long it takes for the measured level to halve. `COc1cc(OC)c(OC)cc1/C=C/COC(=O)/C=C/c1c(OC)cc(OC)c(OC)c1OC` registered a %max in [1] of 356%. The Drug uptake entry in [2], in [8], in series [15] and in series [17] was “Active” each time. Besides, the Activity result is “Non-Toxic” in [3]; 25% in the series on Mus musculus [9]; 50% in the series with Mus musculus [13]; 25 - 100% with Mus musculus [19]; 25% with Mus musculus [24]. Moreover, the maximum concentration (Cmax) in series [4] amounted to 980 ng/mL. Besides, in the series with Mus musculus [5], the outcome was Active. Further, the inhibition in the series listed under Homo sapiens [6] and in the series filed under Homo sapiens [20] was 27% in each case. The Tmax in series [7] and in series [18] was 60 min each time. The compound further gave an AUC at 8 h in series [10] of 5480 ng·h/mL. Also, the TD50 at 0.5 h in [11] is 1970 µmol/kg and 936 mg/kg. For the same compound, the CL/F was 380 mL/min/kg in series [12] and 520 mL/min/kg in series [23]. The bioavailability in series [14] was 36.5%. For the same compound, in series [16], the Vdss turned out to be 11.26 L/kg. The compound also had a half-life in [21] of 59.2 min. The Retention_time in series [22] came to 40.6 min.

The Ki is a dissociation constant, usually derived from enzyme kinetics or from competition with a known ligand. In the case of `COc1cc(OC)c(OC)cc1/C=C/COC(=O)/C=C/c1cc(OC)c(OC)c(OC)c1OC`, the Activity entry in series [3] is “Non-Toxic”; in the series with Mus musculus [27] it was 100%; in the series with Mus musculus [9], 75%; in the series with Mus musculus [30], 100%; in the series with Mus musculus [13], 50%; in the series on Mus musculus [19], 25 - 100%. Moreover, in the series with Mus musculus [24], the Activity came out at 25%. In addition, the “Ratio ED50” value in the series on Mus musculus [25] came out at 23.1; with Mus musculus [29], 1.17; in the series with Mus musculus [31] it was 3.96. This compound also had a peak concentration (Cmax) in series [4] of 880 ng/mL. The compound also yielded a Ki in series [26] of 1770 nM. In addition, the outcome in the series with Mus musculus [5] and with Mus musculus [28] was Active. Moreover, the inhibition in the series listed under Homo sapiens [6] and in the series filed under Homo sapiens [20] was 15% throughout. In addition, the AUC at 8 h in series [10] is 5110 ng·h/mL. Also, in series [11], the TD50 at 0.5 h is > 2110 µmol/kg and > 1000 mg/kg. Also, the CL/F in series [12] turned out to be 390 mL/min/kg; in [23], 560 mL/min/kg. In series [14], the bioavailability was 34.8%. For the same compound, the Vdss in series [16] was 9.98 L/kg. This compound also yielded a half-life in [21] of 58.5 min.
